Data published in patent US9592223B2, “Small molecule inhibitors of MALT1” (Cornell University, priority 2012, dated 2017).
Where two headings read alike, the source gives them in different places.

What was measured:
[1] = Toxicity 2: 25 mg/kg daily IP for 14 days, blood count, serum chemistry, histology; type: in vivo, mice; conditions: for ALBUMIN / ALP / ALT / AST / BASOPHILS / BUN / CALCIUM / CHLORIDE / CHOLESTEROL / CK / CREATININE / DIRECT BILIRUBIN / EOSINOPHILS / GGT / GLOBULIN / GLUCOSE / HEMATOCRIT / HEMOGLOBIN / INDIRECT BILIRUBIN / LYMPHOCYTES / MONOCYTES / NEUTROPHILS / PHOSPHORUS / PLATELETS / RBC / SODIUM / TOTAL BILIRUBIN / TOTAL PROTEIN / WBC: 25 mg/kg IP daily 14 days
Source text: Brain, heart, lung, liver, kidney, bowel, spleen, thymus and bone marrow tissues were examined.

OCI-Ly1 cells = assay: Trypan blue exclusion and Annexin V+ DAPI- apoptosis over 14 days, control line; type: cell-based, human; conditions: treated daily at the higher doses used for TMD8, 14 days
Experimental: Cell proliferation was examined using the CFSE dilution assay by flow cytometry on viable cells at 48, 72 and 96 h. […] Trypan blue exclusion and apoptosis assessed by Annexin V^+ DAPI^− flow cytometry was measured every 48 hr for a period of 14 days.
Apoptosis was assessed by AnnexinV-APC/DAPI (BD Pharmingen) staining followed by flow cytometry.

c-REL = c-REL flow cytometry of whole cells or isolated nuclei, HBL-1 cells; type: cell-based, human; conditions: 200 nM MI-2 or 50 μM Z-VRPR-FMK, 24 hr
Experimental: MALT1 mediates c-REL translocation to the nucleus following BCR stimulation (Ferch et al., 2007). […] This selectivity towards c-REL had also been previously shown in MALT1 knockout mice and after MALT1 cleavage inhibition by the MALT1 blocking peptide Z-VRPR-FMK (Ferch et al., 2009; Ferch et al., 2007; Hailfinger et al., 2011).
[…] was studied by flow cytometry. Cells were treated as indicated and total cells or isolated nuclei were prepared and stained for c-REL. Total cells were fixed and permeabilized using the Intrastain kit from Dako (Glostrup, Denmark). For nuclei extraction, cells were resuspended in cold nuclei extraction buffer (320 mM sucrose, 5 mM MgCl2, 10 mM HEPES, 1% Triton X-100 at pH 7.4), incubated for 10 min on ice and washed twice with nuclei wash buffer (320 mM sucrose, 5 mM MgCl2, 10 mM HEPES at pH 7.4, no Triton X-100). Nuclei yield and integrity were confirmed by microscopic examination with trypan blue staining. For labeling, nuclei wash buffer was supplemented with 1% BSA, 0.1% sodium azide and 1:100 c-REL antibody (Cell Signaling). Cells were washed then incubated with Alexa Fluor-488 conjugated secondary antibodies from Invitrogen. Cells were washed again and stained with DAPI followed by flow cytometry.

TMD8 cells = assay: Growth inhibition, ATP-based luminescent assay; type: cell-based; conditions: Homo sapiens
Experimental: Cell proliferation was determined by ATP quantification using a luminescent method (CellTiter-Glo, Promega, Madison, Wis.) and Trypan blue dye-exclusion (Sigma, St. Louis, Mo.). Cell viability in drug-treated cells was normalized to their respective controls (fractional viability) and results are given as 1-fractional viability. CompuSyn software (Biosoft, Cambridge, UK) was used to determine drug concentrations inhibiting fractional growth compared to controls.
DLBCL cell lines were grown in exponential growth conditions during the 48 hr of treatment. Cell proliferation was determined by ATP quantification using a luminescent method (CellTiter-Glo, Promega, Madison, Wis.) and Trypan blue dye-exclusion (Sigma, St. Louis, Mo.). Luminescence was measured using the Synergy4 microplate reader (BioTek Instruments, Winooski, Vt.). Standard curves for each cell line were calculated by plotting the cell number (determined by the Trypan blue method) against their luminescence values and number of cells was calculated accordingly. Cell viability in drug-treated cells was normalized to their respective controls (fractional viability) and results are given as 1-fractional viability. […] Experiments were performed in triplicate.

COCCOc1nc(-c2ccc(Cl)c(Cl)c2)n(-c2ccc(NC(=O)CCl)cc2)n1 [MI-2]
ALBUMIN ([1]; d14): 3.12 g/dL
ALP ([1]; d14): 83 U/L
ALT ([1]; d14): 25 U/L
AST ([1]; d14): 70 U/L
BASOPHILS ([1]; d14): 0.01 K/μL
BUN ([1]; d14): 23.4 mg/dL
CALCIUM ([1]; d14): 10.88 mg/dL
CHLORIDE ([1]; d14): 108.4 mEq/L
CHOLESTEROL ([1]; d14): 85.4 mg/dL
CK ([1]; d14): 202.8 U/L
CREATININE ([1]; d14): 0.22 mg/dL
DIRECT BILIRUBIN ([1]; d14): 0.10 mg/dL
EOSINOPHILS ([1]; d14): 0.03 K/μL
GGT ([1]; d14): 0 U/L
GLOBULIN ([1]; d14): 2.20 g/dL
GLUCOSE ([1]; d14): 313.8 mg/dL
HEMATOCRIT ([1]; d14): 40.86%
HEMOGLOBIN ([1]; d14): 12.94 g/dL
INDIRECT BILIRUBIN ([1]; d14): 0.08 mg/dL
LYMPHOCYTES ([1]; d14): 6.29 K/μL
MONOCYTES ([1]; d14): 0.32 K/μL
NEUTROPHILS ([1]; d14): 1.18 K/μL
PHOSPHORUS ([1]; d14): 9.46 mg/dL
PLATELETS ([1]; d14): 981 K/μL
RBC ([1]; d14): 8.60 M/μL
SODIUM ([1]; d14): 152.8 mEq/L
TOTAL BILIRUBIN ([1]; d14): 0.180 mg/dL
TOTAL PROTEIN ([1]; d14): 5.32 g/dL
WBC ([1]; d14): 7.83 K/μL
ALBUMIN ([1]; d24 (10-day washout)): 3.15 g/dL
ALP ([1]; d24 (10-day washout)): 100 U/L
ALT ([1]; d24 (10-day washout)): 23 U/L
AST ([1]; d24 (10-day washout)): 49.5 U/L
BASOPHILS ([1]; d24 (10-day washout)): 0.04 K/μL
BUN ([1]; d24 (10-day washout)): 27.0 mg/dL
CALCIUM ([1]; d24 (10-day washout)): 10.80 mg/dL
CHLORIDE ([1]; d24 (10-day washout)): 106.7 mEq/L
CHOLESTEROL ([1]; d24 (10-day washout)): 91.75 mg/dL
CK ([1]; d24 (10-day washout)): 119.5 U/L
CREATININE ([1]; d24 (10-day washout)): 0.20 mg/dL
DIRECT BILIRUBIN ([1]; d24 (10-day washout)): 0.10 mg/dL
EOSINOPHILS ([1]; d24 (10-day washout)): 0.11 K/μL
GGT ([1]; d24 (10-day washout)): 0 U/L
GLOBULIN ([1]; d24 (10-day washout)): 2.15 g/dL
GLUCOSE ([1]; d24 (10-day washout)): 288.5 mg/dL
HEMATOCRIT ([1]; d24 (10-day washout)): 45.02%
HEMOGLOBIN ([1]; d24 (10-day washout)): 13.55 g/dL
INDIRECT BILIRUBIN ([1]; d24 (10-day washout)): 0.07 mg/dL
LYMPHOCYTES ([1]; d24 (10-day washout)): 6.76 K/μL
MONOCYTES ([1]; d24 (10-day washout)): 0.27 K/μL
NEUTROPHILS ([1]; d24 (10-day washout)): 1.85 K/μL
PHOSPHORUS ([1]; d24 (10-day washout)): 9.65 mg/dL
PLATELETS ([1]; d24 (10-day washout)): 1275 K/μL
RBC ([1]; d24 (10-day washout)): 9.38 M/μL
SODIUM ([1]; d24 (10-day washout)): 153 mEq/L
TOTAL BILIRUBIN ([1]; d24 (10-day washout)): 0.175 mg/dL
TOTAL PROTEIN ([1]; d24 (10-day washout)): 5.30 g/dL
WBC ([1]; d24 (10-day washout)): 9.03 K/μL
bone marrow histology ([1]; daily IP 25 mg/kg over 14 days): normocellular with trilineage maturing hematopoiesis
complete peripheral blood counts, biochemistry and liver function tests ([1]; daily IP 25 mg/kg over 14 days): normal
toxic effects, weight loss, tissue damage ([1]; daily IP 25 mg/kg over 14 days, cumulative 350 mg/kg): No toxic effects or other indicators of sickness
viability and apoptosis (OCI-Ly1 cells): no effect
nuclear c-REL (c-REL; isolated nuclei): reduced nuclear c-REL
whole cell c-REL (c-REL; whole cells): without affecting whole cell levels
GI50 (TMD8 cells; TMD8, read-out: GI50 concentration): 500 nM
GI50 (TMD8 cells; TMD8, single dose, 48 hr, read-out: GI50): 500 nM
